What all share (format): cell-based, human
Assay [1] concerns WI-26 VA4 cells. Kind of assay: MTT assay, toxicity in non-cancerous lung fibroblast WI-26 VA4 cells. Particulars: 48 h post treatment, read-out: IC50 for inhibiting the cell proliferation. The text has this: (§1) Therefore, D-DSePA was compared with un-deuterated DSePA for its anticancer activity in A549, H1975 and H3122 cell lines which are representative of NSCLC. […] The plot of percent (%) cytotoxicity (100-% viability) versus the concentration of DSePA/D-DSePA was used to estimate the half maximum concentration (IC50) of above compounds to inhibit the proliferation of cells. […] Similarly, the toxicity of DSePA/D-DSePA was studied in non-cancerous lung fibroblast cells, WI-38 and WI-26 VA4 in the concentration range of 0.1 to 1000 μM at 48 h post treatment by MTT assay (FIG. 9D and 9E). […] Employing these values, the therapeutic index (IC50 in normal lung cell/IC50 in lung cancer cell) of DSePA and D-DSePA in different pairs of normal versus cancerous cells (viz., A549/WI-38, A549/WI-26 VA4, H1975/WI-38, H1975/WI-26 VA4, H3122/WI-38 and H3122/WI-26 VA4) was calculated (Table-3). […]
(§2) MTT Assay—To evaluate the anti-proliferative effect of D-DScPA and DScPA, Cells (˜5×10^3) suspended in 100 μl of complete culture medium were seeded in each well of 96 well plates. […] The percentage (%) cytotoxicity was calculated from the decrease in absorbance at 570 nm of treated groups as compared to that of control group. […] The therapeutic index was calculated by normalizing the IC50 concentration of D-DSePA/DSePA in non-cancerous cells to that in cancerous cells.
In general terms: Formazan colour is commonly taken as a measure of viable cells.

The subject of assay [2] is H3122 cells. Briefly: MTT assay, anti-proliferative effect in H3122 cells. Particulars: 48 h treatment, read-out: IC50 to inhibit cell proliferation. The method, then:
(§3) Therefore, D-DSePA was compared with un-deuterated DSePA for its anticancer activity in A549, H1975 and H3122 cell lines which are representative of NSCLC. For this, above cells were treated with the varying concentrations (0.1-100 μM) of DSePA/D-DSePA for 48 h and the cell viability was determined by MTT assay (FIG. 9A-C). The plot of percent (%) cytotoxicity (100-% viability) versus the concentration of DSePA/D-DSePA was used to estimate the half maximum concentration (IC50) of above compounds to inhibit the proliferation of cells. […] Employing these values, the therapeutic index (IC50 in normal lung cell/IC50 in lung cancer cell) of DSePA and D-DSePA in different pairs of normal versus cancerous cells (viz., A549/WI-38, A549/WI-26 VA4, H1975/WI-38, H1975/WI-26 VA4, H3122/WI-38 and H3122/WI-26 VA4) was calculated (Table-3). […]
as §2

For assay [3], the system named is WI-38 cells. Briefly: MTT assay, toxicity in non-cancerous lung fibroblast WI-38 cells. The following applies: WI38 cells, 48 h post treatment, read-out: IC50 for inhibiting the cell proliferation.
Excerpt: as §1, §2

Assay [4] relates to A549 cells. Kind of assay: MTT assay, anti-proliferative effect in A549 cells. The following applies: 48 h treatment, read-out: IC50 to inhibit cell proliferation. The method, then: as §3, §2
For assay [5], the system named is A549 cells. Briefly: Clonogenic assay in A549 cells. The following applies: seven days treatment, read-out: IC50 to inhibit growth (survival fraction). The method, then: (§4) Further, clonogenic assay is considered as the gold standard method for evaluating the anticancer activity of any compound and is also a good indicator of the in vivo efficacy of any anticancer compound. Therefore, the therapeutic index of DSePA and D-DSePA in A549/WI-38 cells was also validated by employing the clonogenic assay. For this, A549/WI-38 cells were treated with the varying concentrations (0.1-2 μM)/(1-500 μM) of DSePA/D-DSePA for seven days and the survival fraction was calculated by counting the number of surviving clones (FIG. 11A). The plot of survival fraction verses the concentration of DScPA/D-DSCPA was used to estimate the IC50 of above compounds to inhibit the growth of A549/WI-38 cells. […] This clearly confirmed that deuteration of DScPA reduced its toxicity in normal cells without compromising its efficacy in cancer cells. […]
(§5) Clonogenic assay—Clonogenic assay was performed according to the method reported previously. […] After 7 days, colonies were fixed with absolute methanol for 5 min, stained with 0.5% crystal violet for 5 min, washed with distilled water to remove excess stain and counted manually under a stereo microscope. […] The plating efficiency and the survival fraction under irradiated and drug treated conditions were calculated using following formulae: […]
(§6) The plating efficiency of A549 and WI38 cells was calculated by seeding ˜300 and ˜500 cells respectively. […]

In assay [6] the test system is H1975 cells. Briefly: MTT assay, anti-proliferative effect in H1975 cells. The following applies: 48 h treatment, read-out: IC50 to inhibit cell proliferation. The method, then:
as §3, §2

In assay [7] the test system is WI-38 cells. Briefly: Clonogenic assay in WI-38 cells. Particulars: seven days treatment, read-out: IC50 to inhibit growth (survival fraction). The method, then:
as §4, §5, §6

On to `O=C(O)CC[Se][Se]CCC(=O)O` [D-DSePA, 3,3′-diselenodipropionic acid-D8], for which the IC50 is 550 ± 10.2 µM in assay [1]; 46.5 ± 2.9 µM in assay [2]; 1000 ± 6.3 µM in assay [3]; 15.2 ± 0.9 µM in assay [4]; 0.9 ± 0.03 µM in assay [5]; 4.6 ± 0.7 µM in assay [6]. Besides, the IC50 in assay [7] was 35.5 ± 0.02 µM.

For the origin of these results see patent US20240208901A1, “Deuterated 3,3'-Diselenodipropionic Acid (DSePA) and Its Use as an Anticancer or Radioprotective Agent” (Secretary, Department of Atomic Energy, priority 2022, published 2024).
